Laboratory results as given in the supplement of paper PMC11061612.

Legend:
[1] = tested on: COLO-320-HSR (Colorectal Carcinoma); assay: Bliss excess, mean over the matrix (fraction); higher = more synergy
Method in brief: (§1)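 Cell lines in DMEM/F12 or RPMI with 10% FBS were plated in 1536-well plates, held 24 hours at 37°C, 5% CO2, then given two-drug dose matrices for 72 hours (DMSO typically 0.2%). Viability was read by CellTiter-Glo 2.0 luminescence and scaled as inhibition from 0 (vehicle wells) to 1 (blank wells). Combination Emax is the second-highest inhibition in the matrix; Bliss excess is observed combination effect minus expected EA + EB − EA·EB, EA and EB being single-agent effects.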

[2] = tested on: OS-RC-2 (Kidney Carcinoma); assay: as above
Method in brief: as §1

[3] = tested on: TT (Thyroid Gland Carcinoma); assay: as above
Method in brief: as §1

8-MG-BA (Glioblastoma) = assay: combination Emax (second highest fraction inhibited in the dose matrix, 72 h); higher = more inhibition; extreme values may be limits of the assay
Method in brief: as §1

[4] = tested on: A3-KAW (B-Cell Non-Hodgkin's Lymphoma); assay: as above
Method in brief: as §1

[5] = tested on: A549 (Lung Adenocarcinoma); assay: as above
Method in brief: as §1

[6] = tested on: CCK-81 (Colorectal Carcinoma); assay: as above
Method in brief: as §1

[7] = tested on: COLO-824 (Breast Carcinoma); assay: as above
Method in brief: as §1

FU97 (Gastric Carcinoma) = assay: as above
Method in brief: as §1

GI-ME-N (Neuroblastoma) = assay: as above
Method in brief: as §1

[8] = tested on: HCC1954 (Breast Carcinoma); assay: as above
Method in brief: as §1

[9] = tested on: JSC-1 (B-Cell Non-Hodgkin's Lymphoma); assay: as above
Method in brief: as §1

[10] = tested on: KARPAS-422 (B-Cell Non-Hodgkin's Lymphoma); assay: as above
Method in brief: as §1

[11] = tested on: NCI-H1581 (Non-Small Cell Lung Carcinoma); assay: as above
Method in brief: as §1

[12] = tested on: NCI-H1650 (Lung Adenocarcinoma); assay: as above
Method in brief: as §1

[13] = tested on: NCI-H2066 (Squamous Cell Lung Carcinoma); assay: as above
Method in brief: as §1

NCI-H2591 (Mesothelioma) = assay: as above
Method in brief: as §1

[14] = tested on: ONS-76 (Other Solid Carcinomas); assay: as above
Method in brief: as §1

[15] = tested on: TT2609-C02 (Thyroid Gland Carcinoma); assay: as above
Method in brief: as §1

[16] = tested on: VCaP (Prostate Carcinoma); assay: as above
Method in brief: as §1
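For Bliss excess, mean over the matrix in this document: after 72 h of two-drug dosing.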

| Structure (SMILES) | Bliss excess [1] | Bliss excess [2] | Bliss excess [3] | combination Emax (8-MG-BA (Glioblastoma)) | combination Emax [4] | combination Emax [5] | combination Emax [6] | combination Emax [7] | combination Emax (FU97 (Gastric Carcinoma)) | combination Emax (GI-ME-N (Neuroblastoma)) | combination Emax [8] | combination Emax [9] | combination Emax [10] | combination Emax [11] | combination Emax [12] | combination Emax [13] | combination Emax (NCI-H2591 (Mesothelioma)) | combination Emax [14] | combination Emax [15] | combination Emax [16] |
| --- | --- | --- | --- | --- | --- | --- | --- | --- | --- | --- | --- | --- | --- | --- | --- | --- | --- | --- | --- | --- |
| CCc1c2c(nc3ccc(O)cc13)-c1cc3c(c(=O)n1C2)COC(=O)[C@]3(O)CC [SN-38] + CN(C)CCCOc1ccc(-c2ccc3ncc4c(c3c2)n(C2CCOCC2)c(=O)n4C)cn1 [AZD0156] (first compound max 0.3 µM, 7x7, partner max 1 µM) | 0.0243 | -0.0022 | -0.119 | 0.975 | 1 | 0.755 | 0.673 | 0.509 | 0.187 | 0.345 | 0.376 | 0.983 | 0.937 | 0.785 | 0.501 | 0.154 | 0.65 | 0.805 | 0.441 | 0.391 |
| C[C@@H](c1ccc2nccn2c1)n1nnc2ncc(-c3cnn(C)c3)nc21 [Savolitinib] + CC1(C)CCC(CN2CCN(c3ccc(C(=O)NS(=O)(=O)c4ccc(NCC5CCOCC5)c([N+](=O)[O-])c4)c(Oc4cnc5[nH]ccc5c4)c3)CC2)=C(c2ccc(Cl)cc2)C1 [Venetoclax] (first compound max 1 µM, 7x7, partner max 1 µM) | -0.0223 | -0.0854 | -0.0724 | 0.12 | 0.188 | 0.142 | 0.1 | 0.61 | 0.13 | 0.17 | 0.136 | 0.115 | 0.257 | 0.135 | 0.127 | 0.195 | 0.15 | 0.118 | 0.0924 | 0.115 |
| C[C@@H](c1ccc2nccn2c1)n1nnc2ncc(-c3cnn(C)c3)nc21 [Savolitinib] + Cc1c2c(nn1C)CSCc1cc(n(C)n1)CSc1cc(c3ccccc3c1)OCCCc1c(C(=O)O)n(C)c3c-2c(Cl)ccc13 [AZD5991] (first compound max 1 µM, 7x7, partner max 1 µM) | -0.0464 | -0.0561 | -0.0102 | 0.595 | 1 | 0.22 | 0.678 | 0.356 | 0.164 | 0.245 | 0.85 | 1 | 0.961 | 0.951 | 0.132 | 0.169 | 0.216 | 0.153 | 0.156 | 0.946 |
| Cn1cnc2c(F)c(Nc3ccc(Br)cc3Cl)c(C(=O)NOCCO)cc21 [Selumetinib] + C=CCn1c(=O)c2cnc(Nc3ccc(N4CCN(C)CC4)cc3)nc2n1-c1cccc(C(C)(C)O)n1 [AZD1775] (first compound max 10 µM, partner max 1 µM) | -0.0657 | -0.023 | -0.0599 | 0.797 | 0.953 | 0.779 | 0.885 | 0.76 | 0.364 | 0.209 | 0.397 | 0.945 | 0.623 | 0.639 | 0.34 | 0.351 | 0.309 | 0.682 | 0.655 | 0.509 |
| Cn1cnc2c(F)c(Nc3ccc(Br)cc3Cl)c(C(=O)NOCCO)cc21 [Selumetinib] + CC(C)n1c(=O)n(C)c2cnc3cc(F)c(-c4ccc(OCCCN5CCCCC5)nc4)cc3c21 [AZD1390] (first compound max 10 µM, 7x7, partner max 0.3 µM) | -0.0182 | -0.0371 | -0.0364 | 0.116 | 0.408 | 0.761 | 0.379 | 0.302 | 0.273 | 0.178 | 0.227 | 0.584 | 0.123 | 0.455 | 0.132 | 0.254 | 0.199 | 0.713 | 0.663 | 0.0626 |
| Cn1cnc2c(F)c(Nc3ccc(Br)cc3Cl)c(C(=O)NOCCO)cc21 [Selumetinib] + CCN(CCO)CCCOc1ccc2c(Nc3cc(CC(=O)Nc4cccc(F)c4)[nH]n3)ncnc2c1 [AZD2811] (first compound max 10 µM, 7x7, partner max 1 µM) | -0.0398 | -0.0252 | -0.0472 | 0.286 | 0.597 | 0.807 | 0.372 | 0.825 | 0.305 | 0.213 | 0.29 | 0.682 | 0.263 | 0.487 | 0.213 | 0.286 | 0.29 | 0.728 | 0.622 | 0.211 |
| Cn1cnc2c(F)c(Nc3ccc(Br)cc3Cl)c(C(=O)NOCCO)cc21 [Selumetinib] + C[C@@H]1COCCN1C2=NC(=NC(=C2)C3(CC3)[S@](=N)(=O)C)C4=C5C=CNC5=NC=C4 [AZD6738] (first compound max 10 µM, 7x7, partner max 10 µM) | -0.0678 | -0.0455 | -0.0154 | 0.792 | 1 | 0.875 | 0.923 | 0.718 | 0.333 | 0.312 | 0.432 | 0.957 | 0.519 | 0.545 | 0.333 | 0.43 | 0.339 | 0.771 | 0.506 | 0.303 |
| CC1(C)CCC(CN2CCN(c3ccc(C(=O)NS(=O)(=O)c4ccc(NCC5CCOCC5)c([N+](=O)[O-])c4)c(Oc4cnc5[nH]ccc5c4)c3)CC2)=C(c2ccc(Cl)cc2)C1 [Venetoclax] + C1CN(CCC1(C(=O)N[C@@H](CCO)C2=CC=C(C=C2)Cl)N)C3=NC=NC4=C3C=CN4 [Capivasertib] (first compound max 1 µM, 7x7, partner max 3 µM) | -0.0006 | -0.0442 | -0.103 | 0.26 | 0.282 | 0.36 | 0.156 | 0.881 | 0.533 | 0.24 | 0.558 | 0.161 | 0.917 | 0.0621 | 0.164 | 0.424 | 0.174 | 0.761 | 0.139 | 0.398 |
| CC1(C)CCC(CN2CCN(c3ccc(C(=O)NS(=O)(=O)c4ccc(NCC5CCOCC5)c([N+](=O)[O-])c4)c(Oc4cnc5[nH]ccc5c4)c3)CC2)=C(c2ccc(Cl)cc2)C1 [Venetoclax] + C=CCn1c(=O)c2cnc(Nc3ccc(N4CCN(C)CC4)cc3)nc2n1-c1cccc(C(C)(C)O)n1 [AZD1775] (first compound max 1 µM, partner max 1 µM) | 0.0635 | -0.078 | 0.0252 | 0.755 | 0.937 | 0.406 | 0.784 | 0.967 | 0.626 | 0.272 | 0.364 | 0.888 | 0.995 | 0.32 | 0.433 | 0.203 | 0.279 | 0.781 | 0.639 | 0.668 |
| CC1(C)CCC(CN2CCN(c3ccc(C(=O)NS(=O)(=O)c4ccc(NCC5CCOCC5)c([N+](=O)[O-])c4)c(Oc4cnc5[nH]ccc5c4)c3)CC2)=C(c2ccc(Cl)cc2)C1 [Venetoclax] + CCN(CCO)CCCOc1ccc2c(Nc3cc(CC(=O)Nc4cccc(F)c4)[nH]n3)ncnc2c1 [AZD2811] (first compound max 1 µM, 7x7, partner max 1 µM) | 0.0052 | -0.0484 | -0.0834 | 0.245 | 0.286 | 0.461 | 0.199 | 1 | 0.413 | 0.186 | 0.293 | 0.332 | 0.922 | 0.266 | 0.207 | 0.226 | 0.196 | 0.698 | 0.418 | 0.226 |
| CC1(C)CCC(CN2CCN(c3ccc(C(=O)NS(=O)(=O)c4ccc(NCC5CCOCC5)c([N+](=O)[O-])c4)c(Oc4cnc5[nH]ccc5c4)c3)CC2)=C(c2ccc(Cl)cc2)C1 [Venetoclax] + CN(C)CCCOc1ccc(-c2ccc3ncc4c(c3c2)n(C2CCOCC2)c(=O)n4C)cn1 [AZD0156] (first compound max 1 µM, 7x7, partner max 1 µM) | 0.0114 | -0.0456 | -0.13 | 0.171 | 0.288 | 0.28 | 0.244 | 0.783 | 0.462 | 0.226 | 0.162 | 0.141 | 0.873 | 0.182 | 0.104 | 0.156 | 0.161 | 0.725 | 0.154 | 0.196 |
| CC1(C)CCC(CN2CCN(c3ccc(C(=O)NS(=O)(=O)c4ccc(NCC5CCOCC5)c([N+](=O)[O-])c4)c(Oc4cnc5[nH]ccc5c4)c3)CC2)=C(c2ccc(Cl)cc2)C1 [Venetoclax] + COc1cc(Nc2ncc3c(n2)-c2ccc(Cl)cc2C(c2c(F)cccc2OC)=NC3)ccc1C(=O)O [Alisertib] (first compound max 1 µM, 7x7, partner max 10 µM) | 0.0248 | -0.0547 | -0.113 | 0.447 | 0.759 | 0.721 | 0.318 | 1 | 0.484 | 0.327 | 0.36 | 0.377 | 0.858 | 0.698 | 0.493 | 0.285 | 0.298 | 0.553 | 0.426 | 0.305 |
